{
  "source": "patent US7446127B2",
  "about": "“Chroman carboxylic acid derivatives for the treatment of diabetes and lipid disorders” (SK Holdings Co, Ltd., priority 2003, dated 2008)",
  "key": {"[1]": {"test": "Solubility in dosing vehicle", "format": "physicochemical", "from_the_text": "It appeared that compounds of Examples 1 and 2 were not soluble in 0.5% CMC vehicle."}, "[2]": {"test_system": "db/db mice", "test": "Efficacy test for blood glucose lowering (db/db mice)", "format": "in vivo", "conditions": "30 mg/kg/d oral", "method": "(§1) Mice used in this study were standard model of type II diabetes developed by Jackson Laboratories (Bar Harbor, Me.). Male, 8-week-old db/db mice were housed six per cage in hanging wire bottom cages with standard laboratory conditions. The mice had free access to normal chow (Purina Rodent Chow) and water. At the age of 11-12 weeks, mice were bled in the tail for glucose matching among the groups (n=6 per group). The grouped mice were then dosed orally with vehicle (CMC) or with compounds of formula I (30 mg/kg/d) for 7 days. Compound of formula I at 30 mg/kg/d was dosed as suspension in 0.5% CMC+0.2% Tween 80 in H2O. Fresh suspension was prepared for 8 days dosing and kept in a refrigerator. The suspension was administered by oral gavage daily in the morning. The control group received vehicle (dose 10 mL/kg). Blood glucose concentrations were monitored at basal and 3 hr post dose on day 4 and 8. For blood sampling, mice were placed in a restrainer and drop of blood was obtained by nick in the tip of the tail. Blood glucose concentrations were determined either by putting a drop of blood on a glucose strip for analysis by a glucometer or using a 10 μL plasma sample in a YSI (Yellow Spring Instruments, OH) analyzer. Results are expressed as absolute blood glucose concentrations (mg/dL) and % reduction that is achieved reduction relative to vehicle treated control group. Animals having more than 300 mg/dL of blood glucose were used for testing. Statistical significance (p<0.05) is given versus the appropriate sample in vehicle treated animals. On day 7, the mice were fasted overnight for 18 hrs and were bled in the tail for the glucose level checking then dosed with the testing compounds (30 mg/kg/d). After 2 hr, blood samples were taken and the rats were dosed with 10% glucose in water (10 ml/kg) orally and blood glucose was monitored at 15, 30, 60, 90 and 120 min after dosing. The blood samples were centrifuged and plasma samples were collected and analyzed for insulin, Tg and FFA."}, "[3]": {"test_system": "high fat (HF) rats", "test": "Oral Glucose Tolerance Test (OGTT) in high fat (HF) rats", "format": "in vivo, Sprague-Dawley rats", "conditions": "30 mg/kg/d for 9 days", "method": "(§2) An Oral Glucose Tolerance Test (OGTT) was performed both in db/db mice and in high fat (HF) rats after dosing 30 mg/kg/d of compounds of Examples 1 and 2 for 9 days. For OGTT and ITT studies, Sprague-Dawley rats were prepared by feeding high fat (HF) diet (60% calorie from fat) for 6 weeks. Before the study, they were matched into groups on the basis of blood glucose levels."}, "[4]": {"test_system": "HF rat", "test": "Insulin tolerance test (ITT) in HF rat", "format": "in vivo, Sprague-Dawley rats", "conditions": "30 mg/kg oral, insulin 0.25 U/kg i.p. 2 hr later", "method": "as §2, with “levels. Insulin tolerance test (ITT) was performed in HF rat which were prepared in the same manner with OGTT test animal. On the day of the study, rats were orally dosed with the testing compounds (30 mg/kg) and 2 hr later, rats were dosed with insulin (0.25 U/kg, i.p.) in 0.1% BSA solution in saline. Blood glucose of the rat was measured at 15, 30, 60, 120 min after dose.” for “levels.”"}, "[5]": {"test_system": "differentiated 3T3-L1 adipocytes", "test": "Glucose transport assay (2-deoxy-D-glucose uptake)", "format": "cell-based"}, "[6]": {"test_system": "STZ rat", "test": "Blood glucose lowering effect in STZ rat", "format": "in vivo", "conditions": "STZ rat (data not shown)"}, "[7]": {"test_system": "differentiated 3T3-L1 adipocytes", "test": "Glucose transport assay (2-deoxy-D-glucose uptake)", "format": "cell-based", "conditions": "48 hr", "method": "3T3-L1 fibroblasts (American Type Culture Collection) were plated and grown for 2 days postconfluence in Dulbecco's modified Eagle's medium (DMEM; 4,500 mg/L glucose, HyClone) supplemented 10% FBS, 10 μg/mL penicillin and streptomycin in an atmosphere of 5% CO2 at 37° C. Adipocyte differentiation was then induced using standard protocol. After 48 hr, the differentiation medium was replaced with maintenance medium containing DMEM supplemented with 10% FBS. The maintenance medium was changed every 3 days until the cells were utilized for experimentation. Glucose transport activity was measured in the presence or absence of insulin and the protocol was modified from Kletzien, R F et al. (1992) Molecular Pharmacology 41:393-398. Briefly, differentiated 3T3-L1 adipocytes were incubated with vehicle (DMSO), insulin (100 nM) alone, test compound (50 μM) alone and a combination of insulin (100 nM)+test compound (50 μM) for 48 hr. Medium was changed twice a day in the presence of compound. Glucose uptake was measured using 2-Deoxy-D-[1−^3H] glucose as label after 90 min incubation with each compound. […] In the series of compounds, one of the best result was obtained with 7-[2-(5-methyl-2-phenyl-4-oxazolyl)-ethoxy]-chroman-3-carboxylic acid (Example 1)."}, "[8]": {"test_system": "db/db mice", "test": "Oral Glucose Tolerance Test (OGTT) in db/db mice", "format": "in vivo", "conditions": "30 mg/kg/d for 9 days", "method": "as §1, with “FFA. An Oral Glucose Tolerance Test (OGTT) was performed both in db/db mice and in high fat (HF) rats after dosing 30 mg/kg/d of compounds of Examples 1 and 2 for 9 days. For OGTT and ITT studies, Sprague-Dawley rats were prepared by feeding high fat (HF) diet (60% calorie from fat) for 6 weeks. Before the study, they were matched into groups on the basis of blood glucose levels.” for “FFA.”"}},
  "data": [
    {"smiles": "Cc1oc(-c2ccccc2)nc1CCOc1ccc2c(c1)OCC(C(=O)O)C2", "note": "(centres unmarked) [Example 1, 7-[2-(5-Methyl-2-phenyl-4-oxazolyl)ethoxy]chromane-3-carboxylic acid]", "values": [
      {"measurement": "solubility in 0.5% CMC vehicle", "setting": "[1]", "value": "not soluble"},
      {"measurement": "Fatty acid % reduction", "setting": "[2]; plasma", "value": "−33.7", "unit": "%"},
      {"measurement": "Insulin % reduction", "setting": "[2]; plasma", "value": "−62.4", "unit": "%"},
      {"measurement": "Glucose Max % efficacy", "setting": "[2]; suspension in 0.5% CMC + 0.2% Tween 80", "value": 80.0, "unit": "%"},
      {"measurement": "Glucose Observed value", "setting": "[2]; suspension in 0.5% CMC + 0.2% Tween 80, control 261.2", "value": 132.2, "unit": "mg/dL"},
      {"measurement": "AUC of Glucose in high fat rat, % reduction", "setting": "[3]", "value": 13.1, "unit": "%"},
      {"measurement": "AUC of Glucose in high fat rat, Observed value", "setting": "[3]; control 14053", "value": 12206, "unit": "mg/dl × 120 min"},
      {"measurement": "AUC of Glucose in high fat rat, % reduction", "setting": "[4]", "value": "27.7 (p < 0.02) %"},
      {"measurement": "AUC of Glucose in high fat rat, Observed value", "setting": "[4]; control 13359", "value": 11014, "unit": "mg/dl × 120 min"},
      {"measurement": "glucose uptake, dose dependence on compound", "setting": "[5]; 0-100 μM compound in the presence of 100 nM insulin (FIG. 2)", "value": "dose-dependent manner"},
      {"measurement": "glucose uptake of insulin in presence of compound", "setting": "[5]; 50 μM compound, 0.1-1,000 nM insulin (FIG. 3)", "value": "further enhanced glucose uptake of insulin in dose dependent manner"},
      {"measurement": "stimulation of basal glucose uptake by compound per se", "setting": "[5]; 3T3-L1 adipocytes, no insulin, 0.1 to 100 μM", "value": "did not stimulate the basal glucose uptake"},
      {"measurement": "blood glucose lowering effect", "setting": "[6]", "value": "did not reduce blood glucose"},
      {"measurement": "Fold Stimulation (50 μM) of 2-deoxy-D-glucose uptake, Insulin + Compound", "setting": "[7]; 50 μM compound + 100 nM insulin", "value": 8.4, "unit": "fold"},
      {"measurement": "fold induction at 50 µM", "setting": "[7]; Mus musculus, 50 μM compound alone, read-out: Fold Stimulation (50 μM) of 2-deoxy-D-glucose uptake, Compound only", "value": 1.3},
      {"measurement": "AUC of Glucose in db/db, % reduction", "setting": "[8]", "value": 41.5, "unit": "%"},
      {"measurement": "AUC of Glucose in db/db, Observed value", "setting": "[8]; control 40858", "value": 28870, "unit": "mg/dl × 120 min"}
    ]}
  ]
}
